Measured values taken from PubChem BioAssay (NCI).
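Dose response: 5 concentrations. Exposure: 48 h. Format: 96-well plates. Endpoint: linear interpolation; highest concentration if not reached. Definition used: TGI = concentration required for complete inhibition of growth.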

Experiments:
Assay in all cases: inhibition of tumour cell growth, NCI panel, 48 h
HS 578T breast = system: HS 578T breast
SNB-75 CNS = system: SNB-75 CNS
MDA-N = system: MDA-N
SR leukemia = system: SR leukemia
SF-539 CNS = system: SF-539 CNS
SF-295 CNS = system: SF-295 CNS
T-47D breast = system: T-47D breast
HL-60(TB) leukemia = system: HL-60(TB) leukemia
SW-620 colon = system: SW-620 colon
NCI-H460 lung = system: NCI-H460 lung
MCF7 breast = system: MCF7 breast
MDA-MB-231 breast = system: MDA-MB-231 breast
LOX IMVI melanoma = system: LOX IMVI melanoma
ACHN renal = system: ACHN renal
PC-3 prostate = system: PC-3 prostate
BT-549 breast = system: BT-549 breast
UO-31 renal = system: UO-31 renal
786-0 renal = system: 786-0 renal
HT29 colon = system: HT29 colon
NCI-H226 lung = system: NCI-H226 lung
SK-OV-3 ovarian = system: SK-OV-3 ovarian
SN12C renal = system: SN12C renal
OVCAR-3 ovarian = system: OVCAR-3 ovarian
NCI-H522 lung = system: NCI-H522 lung
NCI/ADR-RES ovarian = system: NCI/ADR-RES ovarian
MALME-3M melanoma = system: MALME-3M melanoma
HCT-15 colon = system: HCT-15 colon
HOP-92 NSCLC = system: HOP-92 NSCLC
K-562 leukemia = system: K-562 leukemia
TK-10 renal = system: TK-10 renal
UACC-257 melanoma = system: UACC-257 melanoma
M14 melanoma = system: M14 melanoma
MOLT-4 leukemia = system: MOLT-4 leukemia
NCI-H23 lung = system: NCI-H23 lung
SF-268 CNS = system: SF-268 CNS
U251 CNS = system: U251 CNS
UACC-62 melanoma = system: UACC-62 melanoma
CCRF-CEM leukemia = system: CCRF-CEM leukemia
SK-MEL-2 melanoma = system: SK-MEL-2 melanoma
MDA-MB-435 = system: MDA-MB-435
A549 NSCLC = system: A549 NSCLC
OVCAR-4 ovarian = system: OVCAR-4 ovarian
EKVX NSCLC = system: EKVX NSCLC
OVCAR-5 ovarian = system: OVCAR-5 ovarian
OVCAR-8 ovarian = system: OVCAR-8 ovarian
HCT-116 colon = system: HCT-116 colon
KM12 colon = system: KM12 colon
DU-145 prostate = system: DU-145 prostate
SNB-19 CNS = system: SNB-19 CNS
SK-MEL-28 melanoma = system: SK-MEL-28 melanoma
COLO 205 colon = system: COLO 205 colon
HOP-62 NSCLC = system: HOP-62 NSCLC
CAKI-1 renal = system: CAKI-1 renal
RXF 393 renal = system: RXF 393 renal
RPMI-8226 leukemia = system: RPMI-8226 leukemia
SK-MEL-5 melanoma = system: SK-MEL-5 melanoma
A498 renal = system: A498 renal

Work on `O=C1CCC2(c3ccccc3)Nc3ccncc3N12` (stereo not given) yielded a TGI (HS 578T breast) greater than 10 µM, a TGI (SNB-75 CNS) greater than 10 µM and a TGI (MDA-N) greater than 10 µM. The TGI (SR leukemia) was greater than 10 µM, the TGI (SF-539 CNS) was greater than 10 µM and the TGI (SF-295 CNS) was greater than 10 µM. The TGI (T-47D breast) was greater than 10 µM, the TGI (HL-60(TB) leukemia) was greater than 10 µM and the TGI (SW-620 colon) was greater than 10 µM. For the same compound, the TGI (NCI-H460 lung) was greater than 10 µM, the TGI (MCF7 breast) was greater than 10 µM and the TGI (MDA-MB-231 breast) was greater than 10 µM. The TGI (LOX IMVI melanoma) was greater than 10 µM, the TGI (ACHN renal) was greater than 10 µM and the TGI (PC-3 prostate) was greater than 10 µM. The TGI (BT-549 breast) was greater than 10 µM, the TGI (UO-31 renal) was greater than 10 µM and the TGI (786-0 renal) was greater than 10 µM. The TGI (HT29 colon) was greater than 10 µM, the TGI (NCI-H226 lung) was greater than 10 µM and the TGI (SK-OV-3 ovarian) was greater than 10 µM. The TGI (SN12C renal) was greater than 10 µM, the TGI (OVCAR-3 ovarian) was greater than 10 µM and the TGI (NCI-H522 lung) was greater than 10 µM. The TGI (NCI/ADR-RES ovarian) was greater than 10 µM, the TGI (MALME-3M melanoma) was greater than 10 µM and the TGI (HCT-15 colon) was greater than 10 µM. It also gave a TGI (HOP-92 NSCLC) greater than 10 µM, a TGI (K-562 leukemia) greater than 10 µM and a TGI (TK-10 renal) greater than 10 µM. For the same compound, the TGI (UACC-257 melanoma) was greater than 10 µM, the TGI (M14 melanoma) was greater than 10 µM and the TGI (MOLT-4 leukemia) was greater than 10 µM. It also gave a TGI (NCI-H23 lung) greater than 10 µM, a TGI (SF-268 CNS) greater than 10 µM and a TGI (U251 CNS) greater than 10 µM. It also gave a TGI (UACC-62 melanoma) greater than 10 µM, a TGI (CCRF-CEM leukemia) greater than 10 µM and a TGI (SK-MEL-2 melanoma) greater than 10 µM. For the same compound, the TGI (MDA-MB-435) was greater than 10 µM, the TGI (A549 NSCLC) was greater than 10 µM and the TGI (OVCAR-4 ovarian) was greater than 10 µM. The TGI (EKVX NSCLC) was greater than 10 µM, the TGI (OVCAR-5 ovarian) was greater than 10 µM and the TGI (OVCAR-8 ovarian) was greater than 10 µM. For the same compound, the TGI (HCT-116 colon) was greater than 10 µM, the TGI (KM12 colon) was greater than 10 µM and the TGI (DU-145 prostate) was greater than 10 µM. The TGI (SNB-19 CNS) was greater than 10 µM.
`COc1cc(/C=N\N(C)C)cc(/C=N/N(C)C)c1O` gave a TGI (HS 578T breast) of 20.9 µM, a TGI (MDA-N) greater than 100 µM and a TGI (SR leukemia) of 32.3 µM. The TGI (SF-539 CNS) was 37.1 µM, the TGI (SF-295 CNS) was 8.9 µM and the TGI (T-47D breast) was 15.2 µM. It also gave a TGI (SK-MEL-28 melanoma) of 59.7 µM, a TGI (HL-60(TB) leukemia) greater than 100 µM and a TGI (SW-620 colon) greater than 100 µM. It also gave a TGI (NCI-H460 lung) greater than 100 µM, a TGI (MCF7 breast) greater than 100 µM and a TGI (MDA-MB-231 breast) of 80 µM. The TGI (LOX IMVI melanoma) was 58.7 µM, the TGI (ACHN renal) was 87.9 µM and the TGI (COLO 205 colon) was 46.9 µM. The TGI (PC-3 prostate) was 96.2 µM, the TGI (BT-549 breast) was 61.9 µM and the TGI (HOP-62 NSCLC) was greater than 100 µM. It also gave a TGI (UO-31 renal) of 79.5 µM, a TGI (786-0 renal) of 74.1 µM and a TGI (HT29 colon) of 48 µM. It also gave a TGI (NCI-H226 lung) of 50.6 µM, a TGI (SK-OV-3 ovarian) of 55.4 µM and a TGI (SN12C renal) of 52.7 µM. It also gave a TGI (OVCAR-3 ovarian) of 53.4 µM, a TGI (NCI-H522 lung) greater than 100 µM and a TGI (NCI/ADR-RES ovarian) greater than 100 µM. The TGI (MALME-3M melanoma) was 56 µM, the TGI (HCT-15 colon) was greater than 100 µM and the TGI (HOP-92 NSCLC) was 61.8 µM. The TGI (TK-10 renal) was greater than 100 µM, the TGI (UACC-257 melanoma) was 98.5 µM and the TGI (M14 melanoma) was 83.9 µM. The TGI (NCI-H23 lung) was greater than 100 µM, the TGI (SF-268 CNS) was greater than 100 µM and the TGI (U251 CNS) was 74.8 µM. The TGI (CAKI-1 renal) was 52.1 µM, the TGI (UACC-62 melanoma) was greater than 100 µM and the TGI (RXF 393 renal) was greater than 100 µM. The TGI (CCRF-CEM leukemia) was 72.4 µM, the TGI (SK-MEL-2 melanoma) was 28.1 µM and the TGI (MDA-MB-435) was greater than 100 µM. The TGI (RPMI-8226 leukemia) was 50.2 µM, the TGI (A549 NSCLC) was greater than 100 µM and the TGI (OVCAR-4 ovarian) was greater than 100 µM. The TGI (SK-MEL-5 melanoma) was greater than 100 µM, the TGI (HCT-116 colon) was greater than 100 µM and the TGI (A498 renal) was greater than 100 µM. The TGI (KM12 colon) was greater than 100 µM, the TGI (DU-145 prostate) was greater than 100 µM and the TGI (SNB-19 CNS) was greater than 100 µM.
